In the kinase profiling compilation of Christmann-Franck et al. (2016):
Values joined by “and” are separate entries in the source; they are usually repeats but may differ in a detail not shown here. Equal values may be shown once.

Key:
Assay in all cases: Caliper, Mobility shift assay off-chip
[1] = system: ABL1 (human), P00519 [Q252H]
FYN (human) = FYN (human) (UniProt P06241)
RPS6KB1 (human) = RPS6KB1 (human) (UniProt P23443)
PRKCB2 (human) = PRKCB2 (human) (UniProt P05771)
PRKCH (human) = PRKCH (human) (UniProt P24723)
MARK1 (human) = MARK1 (human) (UniProt Q9P0L2)
CSNK1A1 (human) = CSNK1A1 (human) (UniProt P48729)
PRKG1 (human) = PRKG1 (human) (UniProt Q13976)
Chain of PRKG1 (human) (Q13976 whole entry, looked up): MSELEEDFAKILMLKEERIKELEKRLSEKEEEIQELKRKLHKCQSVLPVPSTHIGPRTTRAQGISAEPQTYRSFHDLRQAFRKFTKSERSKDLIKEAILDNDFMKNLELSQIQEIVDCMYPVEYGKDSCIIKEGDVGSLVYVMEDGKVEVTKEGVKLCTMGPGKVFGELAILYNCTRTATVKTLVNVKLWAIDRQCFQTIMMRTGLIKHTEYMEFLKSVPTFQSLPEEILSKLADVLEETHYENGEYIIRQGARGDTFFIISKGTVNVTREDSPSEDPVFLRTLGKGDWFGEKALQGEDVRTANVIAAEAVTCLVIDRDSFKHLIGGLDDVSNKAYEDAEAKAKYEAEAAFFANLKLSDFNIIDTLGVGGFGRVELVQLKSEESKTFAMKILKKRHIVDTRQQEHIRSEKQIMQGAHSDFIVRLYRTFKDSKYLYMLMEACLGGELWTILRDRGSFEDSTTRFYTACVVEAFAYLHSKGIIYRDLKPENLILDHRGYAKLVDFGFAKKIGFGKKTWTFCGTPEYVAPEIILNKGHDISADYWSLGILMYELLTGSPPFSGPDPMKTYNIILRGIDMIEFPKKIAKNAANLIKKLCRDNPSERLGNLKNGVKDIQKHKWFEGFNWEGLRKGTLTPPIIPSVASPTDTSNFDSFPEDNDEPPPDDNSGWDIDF

FGFR4 (human) = FGFR4 (human) (UniProt P22455)
PRKCQ (human) = PRKCQ (human) (UniProt Q04759)
FER (human) = FER (human) (UniProt P16591)
MAPKAPK2 (human) = MAPKAPK2 (human) (UniProt P49137)
Chain of MAPKAPK2 (human) (P49137 whole entry, looked up): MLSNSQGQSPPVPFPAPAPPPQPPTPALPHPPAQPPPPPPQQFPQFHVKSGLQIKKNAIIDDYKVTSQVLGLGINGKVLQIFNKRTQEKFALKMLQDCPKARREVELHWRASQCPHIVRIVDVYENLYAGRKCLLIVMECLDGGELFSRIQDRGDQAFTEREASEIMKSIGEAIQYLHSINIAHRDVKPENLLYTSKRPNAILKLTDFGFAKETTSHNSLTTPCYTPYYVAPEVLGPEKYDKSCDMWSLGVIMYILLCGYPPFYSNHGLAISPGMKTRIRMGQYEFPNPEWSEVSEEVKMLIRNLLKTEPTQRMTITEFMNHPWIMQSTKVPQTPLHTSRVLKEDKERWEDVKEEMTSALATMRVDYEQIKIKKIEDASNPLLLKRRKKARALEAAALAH

IGF1R (human) = IGF1R (human) (UniProt P08069)
BMX (human) = BMX (human) (UniProt P51813)
PRKCA (human) = PRKCA (human) (UniProt P17252)
SGK1 (human) = SGK1 (human) (UniProt O00141)
MARK3 (human) = MARK3 (human) (UniProt P27448)
RPS6KA4 KD1 KD2 (human) = RPS6KA4 KD1 KD2 (human) (UniProt O75676)
PRKD1 (human) = PRKD1 (human) (UniProt Q15139)
BTK (human) = BTK (human) (UniProt Q06187)
MAPK14 (human) = MAPK14 (human) (UniProt Q16539)
PRKCZ (human) = PRKCZ (human) (UniProt Q05513)
BRSK1 (human) = BRSK1 (human) (UniProt Q8TDC3)
RPS6KA5 KD1 KD2 (human) = RPS6KA5 KD1 KD2 (human) (UniProt O75582)
Chain of RPS6KA5 KD1 KD2 (human) (O75582 whole entry, looked up): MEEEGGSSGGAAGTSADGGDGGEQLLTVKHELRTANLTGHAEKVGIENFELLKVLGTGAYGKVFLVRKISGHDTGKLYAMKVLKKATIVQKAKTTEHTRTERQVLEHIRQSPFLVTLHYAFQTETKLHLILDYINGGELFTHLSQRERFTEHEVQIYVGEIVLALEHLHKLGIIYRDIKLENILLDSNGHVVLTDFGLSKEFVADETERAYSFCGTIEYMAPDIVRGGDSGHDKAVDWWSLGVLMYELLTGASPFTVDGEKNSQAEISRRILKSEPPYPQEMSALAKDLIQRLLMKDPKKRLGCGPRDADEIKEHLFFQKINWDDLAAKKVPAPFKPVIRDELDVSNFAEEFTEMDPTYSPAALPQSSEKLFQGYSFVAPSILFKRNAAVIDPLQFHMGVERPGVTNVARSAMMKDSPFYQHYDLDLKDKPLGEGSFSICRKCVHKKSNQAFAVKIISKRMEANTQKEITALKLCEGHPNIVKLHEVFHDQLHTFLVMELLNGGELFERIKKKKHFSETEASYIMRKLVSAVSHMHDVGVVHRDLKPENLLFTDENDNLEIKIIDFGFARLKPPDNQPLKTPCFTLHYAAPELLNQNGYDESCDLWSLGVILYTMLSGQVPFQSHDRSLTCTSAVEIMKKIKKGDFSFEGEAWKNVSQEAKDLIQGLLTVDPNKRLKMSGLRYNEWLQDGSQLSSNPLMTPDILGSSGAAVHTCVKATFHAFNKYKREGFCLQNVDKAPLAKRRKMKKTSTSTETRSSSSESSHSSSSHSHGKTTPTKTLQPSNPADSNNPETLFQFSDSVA

SGK3 (human) = SGK3 (human) (UniProt Q96BR1)
AURKA (human) = AURKA (human) (UniProt O14965)
EGFR (human) = EGFR (human) (UniProt P00533)
AKT3 (human) = AKT3 (human) (UniProt Q9Y243)
PRKCG (human) = PRKCG (human) (UniProt P05129)
SGK2 (human) = SGK2 (human) (UniProt Q9HBY8)
CSNK1D (human) = CSNK1D (human) (UniProt P48730)
Chain of CSNK1D (human) (P48730 whole entry, looked up): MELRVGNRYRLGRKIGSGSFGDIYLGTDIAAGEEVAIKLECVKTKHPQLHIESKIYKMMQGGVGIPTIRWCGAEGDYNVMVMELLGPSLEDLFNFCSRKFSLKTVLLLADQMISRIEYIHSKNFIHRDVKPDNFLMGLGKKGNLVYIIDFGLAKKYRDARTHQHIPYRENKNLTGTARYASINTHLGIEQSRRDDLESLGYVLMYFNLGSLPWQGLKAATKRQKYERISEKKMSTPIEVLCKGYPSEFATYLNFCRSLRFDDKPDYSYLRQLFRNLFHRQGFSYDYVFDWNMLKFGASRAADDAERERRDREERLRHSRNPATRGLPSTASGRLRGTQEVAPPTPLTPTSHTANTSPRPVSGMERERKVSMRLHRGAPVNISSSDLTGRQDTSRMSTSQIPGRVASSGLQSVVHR

CAMK2G (human) = CAMK2G (human) (UniProt Q13555)
ABL1 (human) = ABL1 (human) (UniProt P00519)

Chain of PRKCB2 (human) (P05771 whole entry, looked up): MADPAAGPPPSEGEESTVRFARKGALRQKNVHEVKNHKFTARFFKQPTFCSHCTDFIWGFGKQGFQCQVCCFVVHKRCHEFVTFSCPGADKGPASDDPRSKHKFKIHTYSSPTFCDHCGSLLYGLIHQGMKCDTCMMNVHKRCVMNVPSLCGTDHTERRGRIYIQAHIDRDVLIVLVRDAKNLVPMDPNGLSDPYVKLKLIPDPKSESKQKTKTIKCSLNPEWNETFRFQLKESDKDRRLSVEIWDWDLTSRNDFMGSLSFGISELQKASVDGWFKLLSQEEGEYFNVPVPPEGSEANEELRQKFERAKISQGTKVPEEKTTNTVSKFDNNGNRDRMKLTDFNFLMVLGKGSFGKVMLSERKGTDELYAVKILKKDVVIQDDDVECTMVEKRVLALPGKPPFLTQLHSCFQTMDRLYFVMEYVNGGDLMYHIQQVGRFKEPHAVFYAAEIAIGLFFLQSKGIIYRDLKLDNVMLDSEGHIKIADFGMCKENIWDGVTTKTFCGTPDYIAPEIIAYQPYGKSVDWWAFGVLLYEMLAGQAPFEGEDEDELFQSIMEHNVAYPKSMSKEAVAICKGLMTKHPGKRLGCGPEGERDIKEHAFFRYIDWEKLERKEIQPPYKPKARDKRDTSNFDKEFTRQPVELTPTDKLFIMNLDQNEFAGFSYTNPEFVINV
Chain of RPS6KB1 (human) (P23443 whole entry, looked up): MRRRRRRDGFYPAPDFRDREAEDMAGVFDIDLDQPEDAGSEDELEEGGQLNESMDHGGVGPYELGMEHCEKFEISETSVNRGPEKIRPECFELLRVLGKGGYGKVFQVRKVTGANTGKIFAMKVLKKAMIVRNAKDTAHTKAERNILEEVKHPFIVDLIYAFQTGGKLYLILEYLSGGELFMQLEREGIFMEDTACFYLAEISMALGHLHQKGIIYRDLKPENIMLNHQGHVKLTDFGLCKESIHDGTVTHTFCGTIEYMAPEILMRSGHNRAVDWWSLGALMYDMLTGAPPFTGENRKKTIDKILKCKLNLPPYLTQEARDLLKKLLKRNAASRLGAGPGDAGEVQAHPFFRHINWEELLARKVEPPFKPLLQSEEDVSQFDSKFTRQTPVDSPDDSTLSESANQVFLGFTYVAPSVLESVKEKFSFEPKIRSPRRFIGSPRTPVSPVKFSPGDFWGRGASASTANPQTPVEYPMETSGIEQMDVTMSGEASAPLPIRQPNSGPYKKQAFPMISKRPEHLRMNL

## Cn1cc(-c2cnc3ccc4ccc(CS(=O)(=O)NC5CCCCC5)cc4c(=O)c3c2)cn1
[1]; compound 0.01 µM
  inhibition: 2.5%
[1]; compound 0.1 µM
  inhibition: 7.6%
FYN (human); compound 0.01 µM
  inhibition: -0.7%
FYN (human); compound 0.1 µM
  inhibition: -3%
RPS6KB1 (human); compound 0.01 µM
  inhibition: 8%
RPS6KB1 (human); compound 0.1 µM
  inhibition: 4.2%
PRKCB2 (human); compound 0.01 µM
  inhibition: 1.4%
PRKCB2 (human); compound 0.1 µM
  inhibition: 5.7%
PRKCH (human); compound 0.01 µM
  inhibition: -2.5%
PRKCH (human); compound 0.1 µM
  inhibition: -14.9%
MARK1 (human); compound 0.01 µM
  inhibition: 0.6%
MARK1 (human); compound 0.1 µM
  inhibition: 5.5%
CSNK1A1 (human); compound 0.01 µM
  inhibition: -2.8%
CSNK1A1 (human); compound 0.1 µM
  inhibition: 10.2%
PRKG1 (human); compound 0.01 µM
  inhibition: 3.2% and -1.8%
PRKG1 (human); compound 0.1 µM
  inhibition: 9.2% and -4.9%
FGFR4 (human); compound 0.01 µM
  inhibition: -3%
FGFR4 (human); compound 0.1 µM
  inhibition: 9.7%
PRKCQ (human); compound 0.01 µM
  inhibition: -6.4%
PRKCQ (human); compound 0.1 µM
  inhibition: -1.3%
FER (human); compound 0.01 µM
  inhibition: -1%
FER (human); compound 0.1 µM
  inhibition: 0.2%
MAPKAPK2 (human); compound 0.01 µM
  inhibition: -0.8%
MAPKAPK2 (human); compound 0.1 µM
  inhibition: -0.9%
IGF1R (human); compound 0.01 µM
  inhibition: 3.9%
IGF1R (human); compound 0.1 µM
  inhibition: -7.9%
BMX (human); compound 0.01 µM
  inhibition: -1%
BMX (human); compound 0.1 µM
  inhibition: -7.1%
PRKCA (human); compound 0.01 µM
  inhibition: -5.5%
PRKCA (human); compound 0.1 µM
  inhibition: 5.2%
SGK1 (human); compound 0.01 µM
  inhibition: 2.1%
SGK1 (human); compound 0.1 µM
  inhibition: 9.1%
MARK3 (human); compound 0.01 µM
  inhibition: -3.5%
MARK3 (human); compound 0.1 µM
  inhibition: -0.6%
RPS6KA4 KD1 KD2 (human); compound 0.01 µM
  inhibition: -2.3%
RPS6KA4 KD1 KD2 (human); compound 0.1 µM
  inhibition: -2.1%
PRKD1 (human); compound 0.01 µM
  inhibition: -2.4%
PRKD1 (human); compound 0.1 µM
  inhibition: 11.3%
BTK (human); compound 0.01 µM
  inhibition: 8.4%
BTK (human); compound 0.1 µM
  inhibition: 5.5%
MAPK14 (human); compound 0.01 µM
  inhibition: -1.7%
MAPK14 (human); compound 0.1 µM
  inhibition: -2.6%
PRKCZ (human); compound 0.01 µM
  inhibition: 1.8%
PRKCZ (human); compound 0.1 µM
  inhibition: 3.6%
BRSK1 (human); compound 0.01 µM
  inhibition: -2.1%
BRSK1 (human); compound 0.1 µM
  inhibition: -1.6%
RPS6KA5 KD1 KD2 (human); compound 0.01 µM
  inhibition: 3.4%
RPS6KA5 KD1 KD2 (human); compound 0.1 µM
  inhibition: -4.2%
SGK3 (human); compound 0.01 µM
  inhibition: 4.9%
SGK3 (human); compound 0.1 µM
  inhibition: 17.7%
AURKA (human); compound 0.01 µM
  inhibition: 5.8%
AURKA (human); compound 0.1 µM
  inhibition: 6.9%
EGFR (human); compound 0.01 µM
  inhibition: -7.2%
EGFR (human); compound 0.1 µM
  inhibition: -1%
AKT3 (human); compound 0.01 µM
  inhibition: -2.7%
AKT3 (human); compound 0.1 µM
  inhibition: 5.2%
PRKCG (human); compound 0.01 µM
  inhibition: 2.4%
PRKCG (human); compound 0.1 µM
  inhibition: 2.1%
SGK2 (human); compound 0.01 µM
  inhibition: -1.3%
SGK2 (human); compound 0.1 µM
  inhibition: -0.1%
CSNK1D (human); compound 0.01 µM
  inhibition: -3.5%
CSNK1D (human); compound 0.1 µM
  inhibition: 8.9%
CAMK2G (human); compound 0.01 µM
  inhibition: 13.5%
CAMK2G (human); compound 0.1 µM
  inhibition: -2.8%
ABL1 (human); compound 0.01 µM
  inhibition: 3.8%
ABL1 (human); compound 0.1 µM
  inhibition: 3.4%
